In ChEMBL document CHEMBL4825746, “Combination Therapy Comprising A2A/A2B and PD-1/PD-L1 Inhibitors for Treating Cancer” (ACS Med Chem Lett, 2021):

Tests used:
Adenosine receptor A2a = Adenosine receptor A2a (Homo sapiens, UniProt P29274); assay: Displacement of L0058RED from adenosine A2A receptor (unknown origin) in Tag-lite labeled cells measured after 45 mins by fluorescence based HTRF assay; format: cell-based
Adenosine receptor A2b = target: T1, Adenosine receptor A2b (Homo sapiens, UniProt P29275); assay: Inhibition of human adenosine A2B receptor expressed in HEK293 cells assessed as reduction in NECA-stimulated cAMP accumulation preincubated for 30 mins followed by NECA stimulation for 60 mins by FRET assay; format: functional, cell-based
T1 sequence (P29275 whole entry): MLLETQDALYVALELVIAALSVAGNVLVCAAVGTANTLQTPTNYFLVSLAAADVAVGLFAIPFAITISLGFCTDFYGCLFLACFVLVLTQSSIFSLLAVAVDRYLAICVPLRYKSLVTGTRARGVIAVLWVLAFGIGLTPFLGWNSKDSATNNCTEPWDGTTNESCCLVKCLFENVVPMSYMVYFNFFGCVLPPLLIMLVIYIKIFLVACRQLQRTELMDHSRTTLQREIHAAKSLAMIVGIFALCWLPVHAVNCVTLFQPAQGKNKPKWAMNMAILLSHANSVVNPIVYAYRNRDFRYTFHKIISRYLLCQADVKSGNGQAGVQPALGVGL

Chain of Adenosine receptor A2a (P29274 whole entry): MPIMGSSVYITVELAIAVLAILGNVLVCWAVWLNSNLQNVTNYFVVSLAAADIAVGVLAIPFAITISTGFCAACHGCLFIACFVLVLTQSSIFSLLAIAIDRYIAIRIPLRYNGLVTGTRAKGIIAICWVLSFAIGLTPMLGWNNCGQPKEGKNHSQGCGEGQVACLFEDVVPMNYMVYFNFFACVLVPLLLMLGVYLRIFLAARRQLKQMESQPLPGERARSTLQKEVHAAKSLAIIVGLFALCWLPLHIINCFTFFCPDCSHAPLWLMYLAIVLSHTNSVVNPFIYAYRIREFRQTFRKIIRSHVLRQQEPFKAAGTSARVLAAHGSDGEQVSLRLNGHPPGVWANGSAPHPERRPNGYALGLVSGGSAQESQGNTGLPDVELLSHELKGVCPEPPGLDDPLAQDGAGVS

SMILES | Ki (Adenosine receptor A2a) | EC50 (Adenosine receptor A2b)
Cc1ncoc1-c1c(-c2cccc(C#N)c2)nc(N)c2nc(C(N)c3c(F)cccc3F)nn12 (configuration not stated) | ≤ 10 nM | ≤ 10 nM
N#Cc1cccc(-c2nc(N)n3nc(C(O)c4c(F)cccc4F)nc3c2C#N)c1F (configuration not stated) | ≤ 10 nM | ≤ 10 nM
N#Cc1cccc(-c2nc(N)n3nc(Cc4cccnc4)nc3c2-c2ccncn2)c1 | ≤ 10 nM | ≤ 10 nM
N#Cc1cccc(-c2cc3nc(C(O)c4c(F)cccc4F)nn3c(N)n2)c1F (configuration not stated) | ≤ 10 nM | ≤ 10 nM
Cn1nccc1-c1c(-c2cccc(C#N)c2F)nc(N)c2nn(Cc3ccccn3)nc12 | ≤ 10 nM | ≤ 10 nM
N#Cc1cccc(-c2nc(N)c3nn(Cc4ncccc4F)nc3c2-c2ccncc2)c1 | ≤ 10 nM | ≤ 10 nM
